Measured values from patent publication US8604217B2, “Compound, a process for its preparation, a pharmaceutical composition, use of a compound, a method for modulating or regulating serine/threonine kinases and a serine/threonine kinases modulating agent” (Selvita S.A., priority 2009, dated 2013).
Read-outs that look alike come from different tables or passages of the source. Values belong to the compound of their own block, whether it stands above or below them.

Key:
p-4EBP1 (Ser65) = experiment: In vitro inhibition of protein phosphorylation, Western blot in MV4-11 cells; assay type: cell-based, human; details: for IC50: Homo sapiens, MV4-11, MV411 cells, read-out: calculated cellular IC50 for biomarker inhibition, p-4EBP1 (Ser65)
Method: (§1) The inventors have investigated the efficacy of PIM-1 kinase inhibition by compound 20 on MV4-11 cells 4 h and 24 h after the treatment. The efficacy of PIM-1 inhibition was evaluated basing on the changes in the expression and phosphorylation levels of its downstream target proteins, using Western blot (FIG. 1). Sunitinib was used as a positive control. After densitometric quantification of the obtained results, cellular IC50 was assessed (Table 6). […] PIM-1 and tubulin protein levels were assessed as controls.

c-MYC = experiment: as above; assay type: cell-based, human; details: for IC50: Homo sapiens, MV4-11, MV411 cells, read-out: calculated cellular IC50 for biomarker inhibition, c-MYC
Method: as §1

TBK1(h) = TBK1(h) (Homo sapiens (Human), UniProt Q9UHD2); experiment: KinaseProfiler kinase panel; assay type: biochemical
CK1γ3(h) = CK1γ3(h) (Homo sapiens (Human), UniProt Q9Y6M4); experiment: KinaseProfiler kinase panel; assay type: biochemical
ULK3(h) = ULK3(h) (Homo sapiens (Human), UniProt Q6PHR2); experiment: KinaseProfiler kinase panel; assay type: biochemical
PKA(h) = PKA(h) (Homo sapiens (Human), UniProt P17612); experiment: KinaseProfiler kinase panel; assay type: biochemical
Rsk2(h) = Rsk2(h) (Homo sapiens (Human), UniProt P51812); experiment: KinaseProfiler kinase panel; assay type: biochemical
Rsk2(h), sequence (P51812 whole entry): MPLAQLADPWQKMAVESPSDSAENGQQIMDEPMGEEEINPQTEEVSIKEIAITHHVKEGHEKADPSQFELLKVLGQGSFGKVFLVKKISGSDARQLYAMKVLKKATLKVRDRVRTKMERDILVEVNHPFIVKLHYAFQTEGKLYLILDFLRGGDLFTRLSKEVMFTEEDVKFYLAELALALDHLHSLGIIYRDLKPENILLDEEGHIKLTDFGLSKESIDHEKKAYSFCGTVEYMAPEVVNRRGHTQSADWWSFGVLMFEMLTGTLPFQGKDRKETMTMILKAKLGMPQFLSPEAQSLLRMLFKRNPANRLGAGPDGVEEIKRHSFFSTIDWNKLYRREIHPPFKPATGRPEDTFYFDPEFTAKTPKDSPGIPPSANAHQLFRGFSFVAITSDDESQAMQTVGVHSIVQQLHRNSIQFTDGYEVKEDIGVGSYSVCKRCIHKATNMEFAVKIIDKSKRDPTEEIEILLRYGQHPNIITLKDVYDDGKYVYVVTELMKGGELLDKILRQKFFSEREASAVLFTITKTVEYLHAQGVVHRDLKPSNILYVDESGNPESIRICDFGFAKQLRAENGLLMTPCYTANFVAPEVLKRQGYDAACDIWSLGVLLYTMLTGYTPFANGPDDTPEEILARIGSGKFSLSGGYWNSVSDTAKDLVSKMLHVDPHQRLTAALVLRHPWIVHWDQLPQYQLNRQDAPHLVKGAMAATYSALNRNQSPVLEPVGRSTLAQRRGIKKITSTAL

Bmx(h) = Bmx(h) (Homo sapiens (Human), UniProt P51813); experiment: KinaseProfiler kinase panel; assay type: biochemical
Txk(h) = Txk(h) (Homo sapiens (Human), UniProt P42681); experiment: KinaseProfiler kinase panel; assay type: biochemical
Txk(h), sequence (P42681 whole entry): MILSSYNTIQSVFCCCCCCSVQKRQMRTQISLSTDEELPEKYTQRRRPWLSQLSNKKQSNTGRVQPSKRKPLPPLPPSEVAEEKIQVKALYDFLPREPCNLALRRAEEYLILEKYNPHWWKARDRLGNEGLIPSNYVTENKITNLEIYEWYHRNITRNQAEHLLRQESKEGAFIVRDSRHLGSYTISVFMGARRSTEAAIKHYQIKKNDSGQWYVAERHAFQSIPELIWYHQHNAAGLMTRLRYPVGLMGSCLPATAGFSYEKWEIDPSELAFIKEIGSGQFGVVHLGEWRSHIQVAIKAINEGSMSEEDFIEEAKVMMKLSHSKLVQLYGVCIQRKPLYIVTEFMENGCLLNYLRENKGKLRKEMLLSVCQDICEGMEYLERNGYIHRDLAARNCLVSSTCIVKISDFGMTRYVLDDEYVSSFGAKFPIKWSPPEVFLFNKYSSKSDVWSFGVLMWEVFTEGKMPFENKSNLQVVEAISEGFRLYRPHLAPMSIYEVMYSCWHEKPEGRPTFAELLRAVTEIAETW

ARK5(h) = ARK5(h) (Homo sapiens (Human), UniProt O60285); experiment: KinaseProfiler kinase panel; assay type: biochemical
PKCδ(h) = PKCδ(h) (Homo sapiens (Human), UniProt Q05655); experiment: KinaseProfiler kinase panel; assay type: biochemical
Rsk3(h) = Rsk3(h) (Homo sapiens (Human), UniProt Q15349); experiment: KinaseProfiler kinase panel; assay type: biochemical
Rsk3(h), sequence (Q15349 whole entry): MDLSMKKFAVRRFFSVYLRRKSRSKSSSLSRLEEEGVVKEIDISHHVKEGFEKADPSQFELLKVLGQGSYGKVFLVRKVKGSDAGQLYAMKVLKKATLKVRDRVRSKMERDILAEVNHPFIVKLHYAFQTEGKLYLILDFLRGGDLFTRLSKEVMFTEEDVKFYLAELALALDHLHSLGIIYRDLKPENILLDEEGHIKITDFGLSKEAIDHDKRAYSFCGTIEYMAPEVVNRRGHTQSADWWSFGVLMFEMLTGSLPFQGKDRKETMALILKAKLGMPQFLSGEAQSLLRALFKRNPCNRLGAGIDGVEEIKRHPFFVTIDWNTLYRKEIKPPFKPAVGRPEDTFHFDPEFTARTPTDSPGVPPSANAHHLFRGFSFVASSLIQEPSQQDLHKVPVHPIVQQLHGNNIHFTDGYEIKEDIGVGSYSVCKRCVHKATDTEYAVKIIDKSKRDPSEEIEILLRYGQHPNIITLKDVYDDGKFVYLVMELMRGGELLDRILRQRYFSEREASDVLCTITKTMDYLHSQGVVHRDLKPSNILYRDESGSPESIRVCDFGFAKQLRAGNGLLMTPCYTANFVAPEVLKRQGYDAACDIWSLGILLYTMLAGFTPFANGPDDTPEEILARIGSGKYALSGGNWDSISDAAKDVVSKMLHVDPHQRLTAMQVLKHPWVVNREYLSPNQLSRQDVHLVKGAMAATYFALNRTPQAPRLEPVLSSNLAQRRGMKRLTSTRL

PRAK(h) = PRAK(h) (Homo sapiens (Human), UniProt Q8IW41); experiment: KinaseProfiler kinase panel; assay type: biochemical
EphA1(h) = EphA1(h) (Homo sapiens (Human), UniProt P21709); experiment: KinaseProfiler kinase panel; assay type: biochemical
Lyn(m) = Lyn(m) (Mus musculus (Mouse), UniProt P25911); experiment: KinaseProfiler kinase panel; assay type: biochemical
Lyn(m), sequence (P25911 whole entry): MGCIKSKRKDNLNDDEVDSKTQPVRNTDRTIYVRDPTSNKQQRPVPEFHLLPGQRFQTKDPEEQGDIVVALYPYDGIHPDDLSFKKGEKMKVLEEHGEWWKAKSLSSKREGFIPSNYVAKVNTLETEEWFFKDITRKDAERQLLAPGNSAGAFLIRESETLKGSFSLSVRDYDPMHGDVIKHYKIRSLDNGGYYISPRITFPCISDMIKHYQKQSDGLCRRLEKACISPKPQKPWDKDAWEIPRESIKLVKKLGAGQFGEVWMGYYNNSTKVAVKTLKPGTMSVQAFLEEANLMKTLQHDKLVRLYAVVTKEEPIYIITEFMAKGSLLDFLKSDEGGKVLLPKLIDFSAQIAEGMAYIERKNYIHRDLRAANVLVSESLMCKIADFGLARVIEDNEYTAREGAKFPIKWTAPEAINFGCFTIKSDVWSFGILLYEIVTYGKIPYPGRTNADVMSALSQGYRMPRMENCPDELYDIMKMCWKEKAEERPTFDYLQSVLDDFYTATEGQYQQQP

TAO3(h) = TAO3(h) (Homo sapiens (Human), UniProt Q9H2K8); experiment: KinaseProfiler kinase panel; assay type: biochemical
PKD2(h) = PKD2(h) (Homo sapiens (Human), UniProt Q9BZL6); experiment: KinaseProfiler kinase panel; assay type: biochemical
PKD2(h), sequence (Q9BZL6 whole entry): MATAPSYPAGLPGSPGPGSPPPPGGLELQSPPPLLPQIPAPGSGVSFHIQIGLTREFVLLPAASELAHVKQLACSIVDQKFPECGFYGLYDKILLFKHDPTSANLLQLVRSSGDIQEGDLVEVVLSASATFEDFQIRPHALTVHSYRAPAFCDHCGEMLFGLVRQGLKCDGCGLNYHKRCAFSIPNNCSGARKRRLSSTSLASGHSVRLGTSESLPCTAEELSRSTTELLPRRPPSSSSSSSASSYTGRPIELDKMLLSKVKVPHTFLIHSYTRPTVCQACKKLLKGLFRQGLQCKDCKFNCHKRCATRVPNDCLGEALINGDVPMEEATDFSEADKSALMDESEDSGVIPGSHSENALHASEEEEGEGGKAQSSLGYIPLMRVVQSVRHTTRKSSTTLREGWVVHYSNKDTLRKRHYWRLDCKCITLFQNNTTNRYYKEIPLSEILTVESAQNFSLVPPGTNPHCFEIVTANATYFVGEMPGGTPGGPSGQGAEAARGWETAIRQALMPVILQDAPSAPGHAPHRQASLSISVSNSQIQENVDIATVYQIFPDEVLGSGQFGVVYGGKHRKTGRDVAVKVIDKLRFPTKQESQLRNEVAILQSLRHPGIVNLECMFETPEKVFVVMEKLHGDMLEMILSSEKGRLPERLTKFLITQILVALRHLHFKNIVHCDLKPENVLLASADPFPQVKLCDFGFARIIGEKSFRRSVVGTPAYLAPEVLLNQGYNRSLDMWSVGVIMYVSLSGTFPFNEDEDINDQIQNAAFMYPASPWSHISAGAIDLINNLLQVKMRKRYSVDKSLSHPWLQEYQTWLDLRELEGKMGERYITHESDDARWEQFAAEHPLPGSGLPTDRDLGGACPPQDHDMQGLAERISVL

SAPK2b(h) = SAPK2b(h) (Homo sapiens (Human), UniProt Q15759); experiment: KinaseProfiler kinase panel; assay type: biochemical
ROCK-II(r) = ROCK-II(r) (Rattus norvegicus (Rat), UniProt Q62868); experiment: KinaseProfiler kinase panel; assay type: biochemical
mTOR(h) = mTOR(h) (Homo sapiens (Human), UniProt P42345); experiment: KinaseProfiler kinase panel; assay type: biochemical
PDGFRα(h) = PDGFRα(h) (Homo sapiens (Human), UniProt P16234); experiment: KinaseProfiler kinase panel; assay type: biochemical
Yes(h) = Yes(h) (Homo sapiens (Human), UniProt P07947); experiment: KinaseProfiler kinase panel; assay type: biochemical
Yes(h), sequence (P07947 whole entry): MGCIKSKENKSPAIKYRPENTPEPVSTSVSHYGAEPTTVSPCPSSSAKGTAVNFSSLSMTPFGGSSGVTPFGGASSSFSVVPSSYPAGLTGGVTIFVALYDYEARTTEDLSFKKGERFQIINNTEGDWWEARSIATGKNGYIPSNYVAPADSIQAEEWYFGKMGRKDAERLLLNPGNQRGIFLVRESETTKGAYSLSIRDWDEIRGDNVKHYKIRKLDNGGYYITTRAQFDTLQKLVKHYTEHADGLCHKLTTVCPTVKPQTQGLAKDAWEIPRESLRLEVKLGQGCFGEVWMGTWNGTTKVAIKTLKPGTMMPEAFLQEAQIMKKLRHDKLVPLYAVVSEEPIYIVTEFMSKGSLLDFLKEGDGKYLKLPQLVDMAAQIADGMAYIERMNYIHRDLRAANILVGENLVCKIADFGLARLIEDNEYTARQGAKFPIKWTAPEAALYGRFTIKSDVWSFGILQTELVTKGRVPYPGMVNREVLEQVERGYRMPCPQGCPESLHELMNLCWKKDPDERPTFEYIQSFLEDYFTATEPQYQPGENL

GSK3α(h) = GSK3α(h) (Homo sapiens (Human), UniProt P49840); experiment: KinaseProfiler kinase panel; assay type: biochemical
PDK1(h) = PDK1(h) (Homo sapiens (Human), UniProt O15530); experiment: KinaseProfiler kinase panel; assay type: biochemical
NEK7(h) = NEK7(h) (Homo sapiens (Human), UniProt Q8TDX7); experiment: KinaseProfiler kinase panel; assay type: biochemical
MuSK(h) = MuSK(h) (Homo sapiens (Human), UniProt O15146); experiment: KinaseProfiler kinase panel; assay type: biochemical
PIM-1(h) = PIM-1(h) (Homo sapiens (Human), UniProt P11309); experiment: KinaseProfiler kinase panel; assay type: biochemical
MRCKβ(h) = MRCKβ(h) (Homo sapiens (Human), UniProt Q9Y5S2); experiment: KinaseProfiler kinase panel; assay type: biochemical
Hck(h) activated = Hck(h) activated (Homo sapiens (Human), UniProt P08631); experiment: KinaseProfiler kinase panel; assay type: biochemical
SAPK3(h) = SAPK3(h) (Homo sapiens (Human), UniProt P53778); experiment: KinaseProfiler kinase panel; assay type: biochemical
SAPK3(h), sequence (P53778 whole entry): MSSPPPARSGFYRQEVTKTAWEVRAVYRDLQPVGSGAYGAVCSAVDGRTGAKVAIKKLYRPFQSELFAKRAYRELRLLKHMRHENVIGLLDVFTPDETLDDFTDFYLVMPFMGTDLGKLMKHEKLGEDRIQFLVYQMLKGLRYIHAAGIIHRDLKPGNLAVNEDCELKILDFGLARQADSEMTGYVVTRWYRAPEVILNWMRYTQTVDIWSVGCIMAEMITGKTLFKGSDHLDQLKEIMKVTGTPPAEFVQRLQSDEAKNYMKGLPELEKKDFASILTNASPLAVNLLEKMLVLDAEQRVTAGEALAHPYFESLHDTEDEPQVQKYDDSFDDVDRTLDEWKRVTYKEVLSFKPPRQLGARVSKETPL

Ros(h) = Ros(h) (Homo sapiens (Human), UniProt P08922); experiment: KinaseProfiler kinase panel; assay type: biochemical
DAPK2(h) = DAPK2(h) (Homo sapiens (Human), UniProt Q9UIK4); experiment: KinaseProfiler kinase panel; assay type: biochemical
MELK(h) = MELK(h) (Homo sapiens (Human), UniProt Q14680); experiment: KinaseProfiler kinase panel; assay type: biochemical
MELK(h), sequence (Q14680 whole entry): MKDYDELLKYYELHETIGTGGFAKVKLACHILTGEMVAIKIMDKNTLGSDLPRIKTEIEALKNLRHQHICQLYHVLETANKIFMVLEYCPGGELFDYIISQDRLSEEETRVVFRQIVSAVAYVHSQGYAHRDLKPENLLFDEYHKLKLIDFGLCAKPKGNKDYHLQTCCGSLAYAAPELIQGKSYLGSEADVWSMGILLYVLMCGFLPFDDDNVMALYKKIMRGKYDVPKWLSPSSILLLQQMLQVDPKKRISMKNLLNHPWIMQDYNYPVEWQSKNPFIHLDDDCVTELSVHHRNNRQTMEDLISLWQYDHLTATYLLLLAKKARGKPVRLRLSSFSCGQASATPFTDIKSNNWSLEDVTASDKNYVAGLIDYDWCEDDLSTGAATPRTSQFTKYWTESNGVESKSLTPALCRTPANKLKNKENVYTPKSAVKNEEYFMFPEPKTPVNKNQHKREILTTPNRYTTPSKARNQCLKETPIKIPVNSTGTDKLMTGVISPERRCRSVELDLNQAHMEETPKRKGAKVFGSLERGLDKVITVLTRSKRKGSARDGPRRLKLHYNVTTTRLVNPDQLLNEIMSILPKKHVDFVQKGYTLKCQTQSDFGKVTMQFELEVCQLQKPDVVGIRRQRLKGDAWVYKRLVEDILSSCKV

TAK1(h) = TAK1(h) (Homo sapiens (Human), UniProt O43318); experiment: KinaseProfiler kinase panel; assay type: biochemical
SAPK2a(h) = SAPK2a(h) (Homo sapiens (Human), UniProt Q16539); experiment: KinaseProfiler kinase panel; assay type: biochemical
SRPK1(h) = SRPK1(h) (Homo sapiens (Human), UniProt Q96SB4); experiment: KinaseProfiler kinase panel; assay type: biochemical

SMILES: Brc1c(Br)c(Br)c2[nH]c(N3CCNCC3)nc2c1Br [Compound 20, 4,5,6,7-tetrabromo-2-(piperazin-1-yl)-1H-benzo[d]imidazole]
- IC50 (p-4EBP1 (Ser65); 4 h treatment): 3.13 µM
- IC50 (p-4EBP1 (Ser65); 24 h treatment): 1.12 µM
- inhibition of p-4EBP1(Ser65) (Western blot) (p-4EBP1 (Ser65); MV4-11 cells, 4 h and 24 h): dose- and time-dependent inhibition
- IC50 (c-MYC; 4 h treatment): 0.89 µM
- IC50 (c-MYC; 24 h treatment): 2.03 µM
- inhibition of c-MYC (Western blot) (c-MYC; MV4-11 cells, after 4 h and 24 h): dose dependent inhibition

- remaining activity at 1 µM (TBK1(h)): 104%
- remaining activity at 1 µM (CK1γ3(h)): 89%
- remaining activity at 1 µM (ULK3(h)): 84%
- remaining activity at 1 µM (PKA(h)): 70%
- remaining activity at 1 µM (Rsk2(h)): 81%
- remaining activity at 1 µM (Bmx(h)): 94%
- remaining activity at 1 µM (Txk(h)): 99%
- remaining activity at 1 µM (ARK5(h)): 93%
- remaining activity at 1 µM (PKCδ(h)): 89%
- remaining activity at 1 µM (Rsk3(h)): 71%
- remaining activity at 1 µM (PRAK(h)): 91%
- remaining activity at 1 µM (EphA1(h)): 75%
- remaining activity at 1 µM (Lyn(m)): 73%
- remaining activity at 1 µM (TAO3(h)): 14%
- remaining activity at 1 µM (PKD2(h)): 58%
- remaining activity at 1 µM (SAPK2b(h)): 91%
- remaining activity at 1 µM (ROCK-II(r)): 71%
- remaining activity at 1 µM (mTOR(h)): 95%
- remaining activity at 1 µM (PDGFRα(h)): 98%
- remaining activity at 1 µM (Yes(h)): 48%
- remaining activity at 1 µM (GSK3α(h)): 60%
- remaining activity at 1 µM (PDK1(h)): 109%
- remaining activity at 1 µM (NEK7(h)): 115%
- remaining activity at 1 µM (MuSK(h)): 103%
- remaining activity at 1 µM (PIM-1(h)): 1%
- remaining activity at 1 µM (MRCKβ(h)): 113%
- remaining activity at 1 µM (Hck(h) activated): 63%
- remaining activity at 1 µM (SAPK3(h)): 68%
- remaining activity at 1 µM (Ros(h)): 104%
- remaining activity at 1 µM (DAPK2(h)): 92%
- remaining activity at 1 µM (MELK(h)): 86%
- remaining activity at 1 µM (TAK1(h)): 52%
- remaining activity at 1 µM (SAPK2a(h)): 99%
- remaining activity at 1 µM (SRPK1(h)): 106%
SMILES: CCn1c(N2CCNCC2)nc2c(Br)c(Br)c(Br)c(Br)c21 [Compound 416, 4,5,6,7-tetrabromo-1-ethyl-2-(piperazin-1-yl)-1H-benzo[d]imidazole]
